This note sets out measurements from patent US8716292B2, “Riminophenazines with 2-(heteroaryl)amino substituents and their anti-microbial activity” (priority 2010, dated 2014).

Each structure is given as a SMILES string. Converted amounts (≈) assume the structure as drawn.

The subject of the first test is Mycobacterium tuberculosis H37Rv strains. The test can be described thus: In vitro assay for antimicrobial susceptibility (microplate Alamar blue MIC). In kind it is cell-based. Particulars: Mycobacterium tuberculosis, H37RV, 7H9, Alamar blue, inhibition ≧90%; read-out: MIC (μg/mL) against H37Rv. (In general: Resazurin is reduced to fluorescent resorufin, in cell work by metabolically active cells.)
In the case of `CC(C)/N=c1\cc2n(-c3ccc(OC(F)(F)F)cc3)c3ccccc3nc-2cc1Nc1ncccn1` [TBI-951, 5-(4-Trifluoromethoxyphenyl)-3-(1-methylethyl)imino-2-(pyrimidin-2-yl)amino-3,5-dihydrophenazine], the MIC came to 0.019 µg/mL (≈ 0.0387 µM). Same read-out and setting: the figure for `CC(C)/N=c1\cc2n(-c3ccc(OC(F)(F)F)cc3)c3ccccc3nc-2cc1Nc1ccccn1` [TBI-952, 5-(4-Trifluoromethoxyphenyl)-3-(1-methylethyl)imino-2-(2-pyridyl)amino-3,5-dihydrophenazine] is 0.093 µg/mL (≈ 0.19 µM); for `CC(C)/N=c1\cc2n(-c3ccc(OC(F)(F)F)cc3)c3ccccc3nc-2cc1Nc1cnccn1` [TBI-953, 5-(4-Trifluoromethoxyphenyl)-3-(1-methylethyl)imino-2-(pyrazin-2-yl)amino-3,5-dihydrophenazine] it is 0.015 µg/mL (≈ 0.0306 µM). For `CC(C)/N=c1\cc2n(-c3ccc(OC(F)(F)F)cc3)c3ccccc3nc-2cc1Nc1ncccc1[N+](=O)[O-]` [TBI-954, 5-(4-Trifluoromethoxyphenyl)-3-(1-methylethyl)imino-2-(3-nitro-2-pyridyl)amino-3,5-dihydrophenazine], the MIC worked out at 0.03 µg/mL (≈ 0.0561 µM).

For the molecule `Clc1ccc(-n2c3c/c(=N\C4CCOCC4)c(Nc4cncnc4)cc-3nc3ccccc32)cc1` [TBI-960, 5-(4-Chlorophenyl)-3-(4-tetrahydropyranyl)imino-2-(pyrimidin-5-yl)amino-3,5-dihydrophenazine], the MIC was 0.03 µg/mL (≈ 0.0621 µM). The same measure, in the same setting: for `Clc1ccc(-n2c3c/c(=N\C4CCCCC4)c(Nc4cncnc4)cc-3nc3ccccc32)cc1` [TBI-961, 5-(4-Chlorophenyl)-3-cyclohexylimino-2-(pyrimidin-5-yl)amino-3,5-dihydrophenazine] the value was 0.015 µg/mL (≈ 0.0312 µM); for `Clc1cccc(-n2c3c/c(=N\C4CCOCC4)c(Nc4cncnc4)cc-3nc3ccccc32)c1` [TBI-980, 5-(3-Chlorophenyl)-3-(4-tetrahydropyranyl)imino-2-(pyrimidin-5-yl)amino-3,5-dihydrophenazine], 0.06 µg/mL (≈ 0.124 µM).

The test is the same for the next values; noted with them: Mycobacterium tuberculosis, H37RV, in vitro, Mycobacterium tuberculosis H37Rv strains; read-out: MIC (μg/mL) against H37Rv.
For the molecule `COc1ccc2nc3cc(Nc4cccnc4OC)/c(=N/C4CCC(OC)CC4)cc-3n(-c3ccc(Cl)cc3)c2c1` (stereo not drawn) [TBI-941, 7-Methoxy-5-(4-chlorophenyl)-3-(4-methoxycyclohexyl)imino-2-(2-methoxy-3-pyridyl)amino-3,5-dihydrophenazine], the MIC was 0.06 µg/mL (≈ 0.105 µM). The same measure, in the same setting: the figure for `COc1ccc2nc3cc(Nc4cccnc4OC)/c(=N/C4CCOCC4)cc-3n(-c3ccc(Cl)cc3)c2c1` [TBI-942, 7-Methoxy-5-(4-chlorophenyl)-3-(4-tetrahydropyranyl)imino-2-(2-methoxy-3-pyridyl)amino-3,5-dihydrophenazine] is 0.125 µg/mL (≈ 0.231 µM); for `Cc1ccc(Nc2cc3nc4cc(F)ccc4n(-c4ccc(Cl)cc4)c-3c/c2=N\C(C)C)cn1` [TBI-943, 8-Fluoro-5-(4-chlorophenyl)-3-(1-methylethyl)imino-2-(6-methyl-3-pyridyl)amino-3,5-dihydrophenazine] it is 0.06 µg/mL (≈ 0.127 µM). `Cc1ccc(Nc2cc3nc4ccccc4n(-c4ccc(Cl)c(Cl)c4)c-3c/c2=N\C2CC2)cn1` [TBI-944, 5-(3,4-Dichlorophenyl)-3-cyclopropylimino-2-(6-methyl-3-pyridyl)amino-3,5-dihydrophenazine]: the MIC stood at 0.06 µg/mL (≈ 0.123 µM). Consider `Cc1ccc(Nc2cc3nc4ccccc4n(-c4ccc(Cl)c(Cl)c4)c-3c/c2=N\C2CCOCC2)cn1` [TBI-945, 5-(3,4-Dichlorophenyl)-3-(4-tetrahydropyranyl)imino-2-(6-methyl-3-pyridyl)amino-3,5-dihydrophenazine], for which the MIC is 0.25 µg/mL (≈ 0.471 µM). With `COc1ncccc1Nc1cc2nc3ccccc3n(-c3ccc(Cl)c(Cl)c3)c-2c/c1=N\C1CCC1` [TBI-946, 5-(3,4-Dichlorophenyl)-3-cyclobutylimino-2-(2-methoxy-3-pyridyl)amino-3,5-dihydrophenazine], the MIC turned out to be 0.06 µg/mL (≈ 0.116 µM).

Consider `COc1ncccc1Nc1cc2nc3ccccc3n(-c3ccc(Cl)cc3Cl)c-2c/c1=N\C1CCOCC1` [TBI-947, 5-(2,4-Dichlorophenyl)-3-(4-tetrahydropyranyl)imino-2-(2-methoxy-3-pyridyl)amino-3,5-dihydrophenazine], for which the MIC was 0.06 µg/mL (≈ 0.11 µM). Still for that read-out and setting: the figure for `Cc1ccc(Nc2cc3nc4ccccc4n(-c4ccc(Cl)c(Cl)c4)c-3c/c2=N\C2CCC2)cn1` [TBI-948, 5-(3,4-Dichlorophenyl)-3-cyclobutylimino-2-(6-methyl-3-pyridyl)amino-3,5-dihydrophenazine] is 0.125 µg/mL (≈ 0.25 µM); for `Cc1ccc(Nc2cc3nc4ccc(F)cc4n(-c4ccc(Cl)c(Cl)c4)c-3c/c2=N\C2CCOCC2)cn1` [TBI-949, 7-Fluoro-5-(3,4-dichlorophenyl)-3-(4-tetrahydropyranyl)imino-2-(6-methyl-3-pyridyl)amino-3,5-dihydrophenazine] it is 0.816 µg/mL (≈ 1.49 µM); for `Cc1ccc(Nc2cc3nc4ccccc4n(-c4ccc(OC(F)(F)F)cc4)c-3c/c2=N\C2CCOCC2)cn1` [TBI-950, 5-(4-Trifluoromethoxyphenyl)-3-(4-tetrahydropyranyl)imino-2-(6-methyl-3-pyridyl)amino-3,5-dihydrophenazine] it is 0.035 µg/mL (≈ 0.0642 µM). Still for that read-out and setting: for `COC1CCC(/N=c2\cc3n(-c4ccc(F)cc4)c4ccccc4nc-3cc2Nc2ccc(C)nc2)CC1` (stereo not drawn) [TBI-1001, 5-(4-Fluorophenyl)-3-(4-methoxycyclohexyl)imino-2-(6-methyl-3-pyridyl)amino-3,5-dihydrophenazine] the value was 0.06 µg/mL (≈ 0.118 µM); for `COc1ncccc1Nc1cc2nc3ccccc3n(-c3ccc(F)cc3)c-2c/c1=N\C1CCOCC1` [TBI-1003, 5-(4-Fluorophenyl)-3-(4-tetrahydropyranyl)imino-2-(2-methoxy-3-pyridyl)amino-3,5-dihydrophenazine], 0.039 µg/mL (≈ 0.0787 µM); for `COc1ncccc1Nc1cc2nc3ccccc3n(-c3ccc(F)cc3)c-2c/c1=N\C1CCN(C)CC1` [TBI-1005, 5-(4-Fluorophenyl)-3-(N-methyl-4-piperidyl)imino-2-(2-methoxy-3-pyridyl)amino-3,5-dihydrophenazine], 0.213 µg/mL (≈ 0.419 µM). Still for that read-out and setting: for `COc1ncccc1Nc1cc2nc3ccccc3n(-c3ccc(F)cc3)c-2c/c1=N\C1CCC(O)CC1` (stereo not drawn) [TBI-1008, 5-(4-Fluorophenyl)-3-(4-hydroxycyclohexyl)imino-2-(2-methoxy-3-pyridyl)amino-3,5-dihydrophenazine] the value was 0.248 µg/mL (≈ 0.487 µM). Regarding `COc1ncccc1Nc1cc2nc3ccccc3n(-c3ccc(F)cc3)c-2c/c1=N\C1CCCCC1` [TBI-1009, 5-(4-Fluorophenyl)-3-cyclohexylimino-2-(2-methoxy-3-pyridyl)amino-3,5-dihydrophenazine], the MIC turned out to be 0.03 µg/mL (≈ 0.0608 µM).

Regarding `Cc1ncccc1Nc1cc2nc3ccccc3n(-c3ccc(F)cc3)c-2c/c1=N\C1CCOCC1` [TBI-1012, 5-(4-Fluorophenyl)-3-(4-tetrahydropyranyl)imino-2-(2-methyl-3-pyridyl)amino-3,5-dihydrophenazine], the MIC was found to be 0.026 µg/mL (≈ 0.0542 µM).

In the case of `COC1CCC(/N=c2\cc3n(-c4ccc(F)cc4)c4ccccc4nc-3cc2Nc2cccnc2C)CC1` (stereo not drawn) [TBI-1013, 5-(4-Fluorophenyl)-3-(4-methoxycyclohexyl)imino-2-(2-methyl-3-pyridyl)amino-3,5-dihydrophenazine], the MIC worked out at 0.019 µg/mL (≈ 0.0374 µM). On the same count and under the same terms, for `Cc1ncccc1Nc1cc2nc3ccccc3n(-c3ccc(F)cc3)c-2c/c1=N\C1CC1` [TBI-1014, 5-(4-Fluorophenyl)-3-cyclopropylimino-2-(2-methyl-3-pyridyl)amino-3,5-dihydrophenazine] the value was 0.025 µg/mL (≈ 0.0574 µM); for `Cc1ncccc1Nc1cc2nc3ccccc3n(-c3ccc(F)cc3)c-2c/c1=N\C1CCC(O)CC1` (stereo not drawn) [TBI-1015, 5-(4-Fluorophenyl)-3-(4-hydroxycyclohexyl)imino-2-(2-methyl-3-pyridyl)amino-3,5-dihydrophenazine], 0.387 µg/mL (≈ 0.784 µM); for `COc1ncccc1Nc1cc2nc3ccccc3n(-c3ccc(F)cc3)c-2c/c1=N\C1CCC1` [TBI-1016, 5-(4-Fluorophenyl)-3-cyclobutylimino-2-(2-methoxy-3-pyridyl)amino-3,5-dihydrophenazine], 0.037 µg/mL (≈ 0.0795 µM).

As to `Cc1ccc(Nc2cc3nc4ccccc4n(-c4ccc(F)cc4)c-3c/c2=N\C2CCC2)cn1` [TBI-1017], the MIC stood at 0.056 µg/mL (≈ 0.125 µM). As for `Cc1ncccc1Nc1cc2nc3ccccc3n(-c3ccc(F)cc3)c-2c/c1=N\C1CCC1` [TBI-1018, 5-(4-Fluorophenyl)-3-cyclobutylimino-2-(2-methyl-3-pyridyl)amino-3,5-dihydrophenazine], the MIC turned out to be 0.028 µg/mL (≈ 0.0623 µM). Still for that read-out and setting: the figure for `CC(C)/N=c1\cc2n(-c3cccc(OC(F)(F)F)c3)c3ccccc3nc-2cc1Nc1cccnc1` [TBI-1019] is 0.057 µg/mL (≈ 0.116 µM). `FC(F)(F)Oc1cccc(-n2c3c/c(=N\C4CCOCC4)c(Nc4cccnc4)cc-3nc3ccccc32)c1` [TBI-1020, 5-(3-Trifluoromethoxyphenyl)-3-(4-tetrahydropyranyl)imino-2-(3-pyridyl)amino-3,5-dihydrophenazine]: the MIC worked out at 0.058 µg/mL (≈ 0.109 µM).

As to `FC(F)(F)Oc1cccc(-n2c3c/c(=N\C4CC4)c(Nc4cccnc4)cc-3nc3ccccc32)c1` [TBI-1021, 5-(3-Trifluoromethoxyphenyl)-3-cyclopropylimino-2-(3-pyridyl)amino-3,5-dihydrophenazine], the MIC was determined as 0.054 µg/mL (≈ 0.111 µM). Regarding `FC(F)(F)Oc1cccc(-n2c3c/c(=N\C4CCCCC4)c(Nc4cccnc4)cc-3nc3ccccc32)c1` [TBI-1022, 5-(3-Trifluoromethoxyphenyl)-3-cyclohexylimino-2-(3-pyridyl)amino-3,5-dihydrophenazine], the MIC was 0.074 µg/mL (≈ 0.14 µM). In the case of `Cc1ncccc1Nc1cc2nc3ccccc3n(-c3ccc(F)cc3)c-2c/c1=N\C1CCCCC1` [TBI-1023, 5-(4-Fluorophenyl)-3-cyclohexylimino-2-(2-methyl-3-pyridyl)amino-3,5-dihydrophenazine], the MIC was 0.0075 µg/mL (≈ 0.0157 µM). Same read-out and setting: for `COC1CCC(/N=c2\cc3n(-c4cccc(OC(F)(F)F)c4)c4ccccc4nc-3cc2Nc2cccnc2)CC1` (stereo not drawn) [TBI-1024, 5-(3-Trifluoromethoxyphenyl)-3-(4-methoxycyclohexyl)imino-2-(3-pyridyl)amino-3,5-dihydrophenazine] the value was 0.112 µg/mL (≈ 0.2 µM); for `Cc1cncc(Nc2cc3nc4ccccc4n(-c4ccc(F)cc4)c-3c/c2=N\C(C)C)c1` [TBI-1025, 5-(4-Fluorophenyl)-3-(1-methylethyl)imino-2-(5-methyl-3-pyridyl)amino-3,5-dihydrophenazine], 0.122 µg/mL (≈ 0.279 µM).
